From patent publication US20230089247A1, “NOVEL COMPOUNDS SUITABLE FOR THE TREATMENT OF DYSLIPIDEMIA” (ZYDUS LIFESCIENCES LIMITED, priority 2019, published 2023)

Biological target: PCSK9 (Homo sapiens, UniProt Q8NBP7)
Assay: BODIPY-LDL uptake assay in HepG2 cells
Type: cell-based
Details: 5 μg/ml PCSK9, BODIPY-LDL
Procedure, shortened: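 Compounds pre-incubated 60 min with 5 μg/ml PCSK9 (0.2% DMSO), then added to HepG2 cells for 16 h; 1 μg/ml BODIPY-LDL added in serum-free medium for 5 h. Fluorescence (Ex 485/Em 520 nm) normalized to protein; PCSK9-only wells = 0%, no-PCSK9 wells = 100% uptake, giving percent increase in LDL uptake.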

Sequence of PCSK9 (Q8NBP7 153-692): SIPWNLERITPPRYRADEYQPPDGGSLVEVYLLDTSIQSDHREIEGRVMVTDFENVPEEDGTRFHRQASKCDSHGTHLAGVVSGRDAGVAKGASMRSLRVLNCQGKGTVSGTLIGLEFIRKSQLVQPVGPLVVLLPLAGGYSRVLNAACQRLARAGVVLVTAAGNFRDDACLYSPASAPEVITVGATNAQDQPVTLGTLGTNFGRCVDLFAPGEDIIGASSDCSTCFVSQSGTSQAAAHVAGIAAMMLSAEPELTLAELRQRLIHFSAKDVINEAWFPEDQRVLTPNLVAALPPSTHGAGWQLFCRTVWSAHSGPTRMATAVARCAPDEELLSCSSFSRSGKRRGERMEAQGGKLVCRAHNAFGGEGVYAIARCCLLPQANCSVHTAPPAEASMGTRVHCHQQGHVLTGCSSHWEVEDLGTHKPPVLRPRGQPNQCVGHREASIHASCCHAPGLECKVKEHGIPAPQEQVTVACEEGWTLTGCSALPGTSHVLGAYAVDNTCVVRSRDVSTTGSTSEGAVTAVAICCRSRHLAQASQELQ

SMILES	% increase in LDL Uptake (1 μM test compound)	% increase in LDL Uptake (10 μM test compound)	% increase in LDL Uptake (30 μM test compound)
COC1(c2ccc(C(=O)N3CCC(c4ccc(C(F)(F)F)cc4)CC3)cc2)CCOCC1 [Example 143, (4-(4-methoxytetrahydro-2H-pyran-4-yl)phenyl)(4-(4-(trifluoromethyl)phenyl)piperidin-1-yl)methanone]	0%	41%	28%
O=C(c1ccc(C2(O)CSC2)cc1)N1CC2CN(c3ccc(C(F)(F)F)cc3)CC2C1 (stereo not drawn) [Example 146, (4-(3-hydroxythietan-3-yl)phenyl)(5-(4-(trifluoromethyl)phenyl)hexahydropyrrolo[3,4-c]pyrrol-2(1H)-yl)methanone]	53%	212%	29%
CCOC1(c2ccc(C(=O)N3CCC(c4ccc(C(F)(F)F)cc4)CC3)cc2)CSC1 [Example 148, (4-(3-ethoxythietan-3-yl)phenyl)(4-(4-(trifluoromethyl)phenyl)piperidin-1-yl)methanone]	20%	3%	11%
COC1(c2ccc(C(=O)N3CCC(c4ccc(C(F)(F)F)cc4)CC3)cc2)CCN(C(C)=O)CC1 [Example 158, 1-(4-methoxy-4-(4-(4-(4-(trifluoromethyl)phenyl)piperidine-1-carbonyl)phenyl)piperidin-1-yl)ethan-1-one]	0%	42%	0%
O=C(c1ccc(C2(O)COC2)cc1)N1CCc2nc(-c3ccc(C(F)(F)F)cc3)sc2C1 [Example 175, (4-(3-hydroxyoxetan-3-yl)phenyl)(2-(4-(trifluoromethyl)phenyl)-6,7-dihydrothiazolo[5,4-c]pyridin-5(4H)-yl)methanone]	17%	0%	0%
O=C(c1cccc(C2(O)COC2)c1)N1CCc2scc(-c3ccc(C(F)(F)F)cc3)c2C1 [Example 176, (3-(3-hydroxyoxetan-3-yl)phenyl)(3-(4-(trifluoromethyl)phenyl)-6,7-dihydrothieno[3,2-c]pyridin-5(4H)-yl)methanone]	0%	12%	68%
O=C(c1cccc(C2(OCC3CC3)COC2)c1)N1CC2CN(c3ccc(C(F)(F)F)cc3)CC2C1 (stereo not drawn) [Example 181, (3-(3-(cyclopropylmethoxy)oxetan-3-yl)phenyl)(5-(4-(trifluoromethyl)phenyl)hexahydropyrrolo[3,4-c]pyrrol-2(1H)-yl)methanone]	3%	19%	26%
COC1(c2cccc(NC(=O)N3CC4CN(c5ccc(C(F)(F)F)cc5)CC4C3)c2)COC1 (stereo not drawn) [Example 183, N-(3-(3-methoxyoxetan-3-yl)phenyl)-5-(4-(trifluoromethyl)phenyl) hexahydropyrrolo[3,4-c]pyrrole-2(1H)-carboxamide]	32%	15%	88%
O=C(c1ccc(C2(OCCO)COC2)cc1)N1CCC(c2ccc(C(F)(F)F)cc2)CC1 [Example 188, (4-(3-(2-hydroxyethoxy)oxetan-3-yl)phenyl)(4-(4-(trifluoromethyl)phenyl)piperidin-1-yl)methanone]	0%	152%	136%
CCSCCOC1(c2ccc(C(=O)N3CCC(c4ccc(C(F)(F)F)cc4)CC3)cc2)COC1 [Example 189, (4-(3-(2-(ethylthio)ethoxy)oxetan-3-yl)phenyl)(4-(4-(trifluoromethyl)phenyl)piperidin-1-yl)methanone]	0%	116%	19%
COC1(c2cccc(C(=O)N3CC4CN(c5ccc(C(F)(F)F)cn5)CC4C3)c2)COC1 (stereo not drawn) [Example 208, (3-(3-methoxyoxetan-3-yl)phenyl)(5-(5-(trifluoromethyl)pyridin-2-yl)hexahydropyrrolo[3,4-c]pyrrol-2 (1H)-yl)methanone]	56%	14%	189%

The remaining lines, values ahead:

% increase in LDL Uptake (1 μM test compound)	% increase in LDL Uptake (10 μM test compound)	% increase in LDL Uptake (30 μM test compound)	SMILES
2%	70%	0%	O=C(c1ccc(C2(O)CSC2)cc1)N1CCC(c2ccc(C(F)(F)F)cc2)CC1 [Example 145, (4-(3-hydroxythietan-3-yl)phenyl)(4-(4-(trifluoromethyl)phenyl)piperidin-1-yl)methanone]
0%	30%	9%	COC1(c2ccc(C(=O)N3CC4CN(c5ccc(C(F)(F)F)cc5)CC4C3)cc2)CSC1 (stereo not drawn) [Example 149, (4-(3-methoxythietan-3-yl)phenyl)(5-(4-(trifluoromethyl)phenyl)hexahydropyrrolo[3,4-c]pyrrol-2(1H)-yl)methanone]
0%	5%	25%	CCOC1(c2ccc(C(=O)N3CC4CN(c5ccc(C(F)(F)F)cc5)CC4C3)cc2)CSC1 (stereo not drawn) [Example 150, (4-(3-ethoxythietan-3-yl)phenyl)(5-(4-(trifluoromethyl)phenyl)hexahydropyrrolo[3,4-c]pyrrol-2(1H)-yl)methanone]
34%	0%	0%	CC(C)(C)OC(=O)N1CCC(O)(c2ccc(C(=O)N3CCC(c4ccc(C(F)(F)F)cc4)CC3)cc2)C1 (stereo not drawn) [Example 151, tert-butyl 3-hydroxy-3-(4-(4-(4-(trifluoromethyl)phenyl)piperidine-1-carbonyl)phenyl)pyrrolidine-1-carboxylate]
0%	0%	31%	O=C(c1ccc(C2(O)CCNC2)cc1)N1CCC(c2ccc(C(F)(F)F)cc2)CC1 (stereo not drawn) [Example 152, (4-(3-hydroxypyrrolidin-3-yl)phenyl)(4-(4-(trifluoromethyl)phenyl)piperidin-1-yl)methanone]
0%	47%	46%	COC1(c2ccc(C(=O)N3CCC(c4ccc(C(F)(F)F)cc4)CC3)cc2)CCNC1 (stereo not drawn) [Example 153, (4-(3-methoxypyrrolidin-3-yl)phenyl)(4-(4-(trifluoromethyl)phenyl)piperidin-1-yl)methanone]
0%	0%	58%	O=C(c1ccc(C2(O)CNC2)cc1)N1CCC(c2ccc(C(F)(F)F)cc2)CC1 [Example 155, (4-(3-hydroxyazetidin-3-yl)phenyl)(4-(4-(trifluoromethyl)phenyl)piperidin-1-yl)methanone]
0%	0%	16%	CCOC1(c2ccc(C(=O)N3CCC(c4ccc(C(F)(F)F)cc4)CC3)cc2)CCN(C(=O)OC(C)(C)C)CC1 [Example 161, tert-butyl 4-ethoxy-4-(4-(4-(4-(trifluoromethyl)phenyl)piperidine-1-carbonyl)phenyl) piperidine-1-carboxylate]
0%	51%	47%	CCOC1(c2cccc(C(=O)N3CC4CN(c5ccc(C(F)(F)F)cc5)CC4C3)c2)COC1 (stereo not drawn) [Example 178, (3-(3-ethoxyoxetan-3-yl)phenyl)(5-(4-(trifluoromethyl)phenyl)hexahydropyrrolo[3,4-c]pyrrol-2(1H)-yl)methanone]
0%	29%	109%	COC1(c2ccc(C(=O)N3CCCN(c4ccc(C(F)(F)F)cc4)CC3)cc2)COC1 [Example 185, (4-(3-methoxyoxetan-3-yl)phenyl)(4-(4-(trifluoromethyl)phenyl)-1,4-diazepan-1-yl)methanone]
17%	73%	31%	O=C(c1ccc(C2(O)COC2)cc1)N1CCC2(CCN(c3ccc(C(F)(F)F)cc3)CC2)C1 [Example 186, (4-(3-hydroxyoxetan-3-yl)phenyl)(8-(4-(trifluoromethyl)phenyl)-2,8-diazaspiro[4.5]decan-2-yl)methanone]
0%	90%	62%	CCS(=O)(=O)CCOC1(c2ccc(C(=O)N3CCC(c4ccc(C(F)(F)F)cc4)CC3)cc2)COC1 [Example 190, (4-(3-(2-(ethylsulfonyl)ethoxy)oxetan-3-yl)phenyl)(4-(4-(trifluoromethyl)phenyl)piperidin-1-yl)methanone]
−8%	25%	3%	COC(=O)c1ccc(C2(O)CC3CN(C(=O)c4ccc(C5(O)COC5)cc4)CC3C2)cc1 (stereo not drawn) [Example 198, Methyl 4-(5-hydroxy-2-(4-(3-hydroxyoxetan-3-yl)benzoyl)octahydrocyclopenta[c]pyrrol-5-yl)benzoate]
0%	0%	73%	CN1CCN(c2cc(NC(=O)C3CCN(c4ccc(C(F)(F)F)cc4)CC3)cc(C3(O)COC3)c2)CC1 [Example 201, N-(3-(3-hydroxyoxetan-3-yl)-5-(4-methylpiperazin-1-yl)phenyl)-1-(4-(trifluoromethyl)phenyl)piperidine-4-carboxamide]
16%	0%	36%	COC1(c2ccc(C(=O)N3CC4=C(C3)CN(c3ccc(C(F)(F)F)cc3)C4)cc2)COC1 [Example 202, (4-(3-methoxyoxetan-3-yl)phenyl)(5-(4-(trifluoromethyl)phenyl)-3,4,5,6-tetrahydropyrrolo[3,4-c]pyrrol-2(1H)-yl)methanone]
